Experimental data: patent US6534515B2, “20,21-dinor-eburnamenines” (Aventis Pharma S.A., priority 1989, dated 2003)

Assays:
[1] = system: adrenergic alpha2 receptors; experiment: Affinity for the adrenergic alpha 2 receptors (3H rauwolscine displacement, rat cortex membranes); type: binding; conditions: rat brain cortex membranes, 3H rauwolscine 0.15 nM, 45 minutes at 25° C.; CD/CX = concentrations of phentolamine/product inhibiting 50% of specific fixation
Description: 1) Affinity for the Adrenergic Alpha 2 Receptors:
10 cortices removed from the brains of male rats weighing an average of 150 g were homogenized in 90 ml of 0.32 M sucrose. After centrifuging 1000 g of the homogenized mixture, for 10 minutes at 0° C.+4° C., the deposit was suspended in 240 ml of 50 mM Tris HCl pH 7.7 buffer, and centrifuged at 30,000 g for 15 minutes at 0°+4° C. The new deposit was suspended in 480 ml of 50 mM NaKPO4 pH 7.4 buffer. Then, 2 ml of suspension were incubated for 45 minutes at 25° C. in the presence of ^3H rauwolscine at a concentration of 0.15 nM:
I) alone or II) with increasing concentrations of the product under test or, III) to determine the non-specific fixation with non-radioactive phentolamine at a concentration of 10^−5M.
The incubated suspensionis were filtered on Whatman GF/C and the filters were washed three times with 5 ml of NaKPO4 pH 7.4 buffer at 0° C. The ratioactivity of the filters was measured by liquid scintillation. The affinity of the product tested for the adrenergic alpha2 receptors was determined relative to phentolamine as reference product.
CD=concentration of phentolamine inhibiting 50% of the specific fixation of ^3H rauwolscine,
CX=concentration of the product under test inhibiting 50% of the specific fixation of ^3H rauwolscine.
The relative affinity was calculated by the relation: […]

[2] = system: male mice of CD1 CHARLES RIVER type; experiment: Hypobaric anoxia survival time in mice; type: in vivo; conditions: intra-peritoneally 10 mg/kg, 60 minutes before the test, pressure drop of 630 mm Hg, relative to control animals
Description: Male mice of CD1 CHARLES RIVER type weighing 20 to 25 grams having gone without food for 6 hours were placed in a 2-liter chamber in which a pressure drop of 630 mm Hg was carried out according to the following kinetics:
The survival time was measured from the time TO and over a maximum time of 3 minutes and it was about 70 seconds for the control animals. The rectal temperature was measured immediately before the determination of the survival time. The products were administered intra-peritoneally at a dose of 10 mg/kg and in a volume of 10 ml/kg 60 minutes before the test and the control animals received the vehicle. The results were determined as a percentage of increase in the survival time relative to the control animals.

| Compound | ARL (relative affinity, from CD and CX, relative to phentolamine as reference product) [1] | % increase in survival time [2] |
| --- | --- | --- |
| CC1=Cn2c3c(c4ccccc42)CCN2CCCC1C32 (stereo not drawn) [Example 7, (3-α)-15-methyl-20,21-dinoreburnameinine] | 980 |  |
| Ethyl [16α, (±)]-20,21-dinoreburnamenine-15-acetate [Example 12] | 942 |  |
| [16α, (±)-20,21-dinoreburnamenin-15-methanol [Example 13] | 346 | 11% |
| [16α, (±)]-14,15-dihydro-15-methylene-20,21-dinorburnamenine [Example 11] | 343 |  |
| [16α, (±)]-15-(1-propynyl)-20,21-dinoreburnamenine [Example 2] | 367 |  |
| [16α, (±)]-15-methyl-20,21-dinoreburnamenine [Example 5] | 456 | 34% |
| [16α, (±)]-N,N-dimethyl-20,21dinoreburnamenin-15-methanamine [Example 14] |  | 12% |
